Laboratory results: PubChem BioAssay AID2060625 (Molecular Pharmacology Branch, DTP, NCI, 2025)
Where “and” joins values, the source holds several entries; their conditions need not be identical. Identical values can stand only once.

System: 186277-243-T-J2-PDC spheroids with HUVEC/MSC, viability
Experiment: Anticancer human tumor 186277-243-T-J2-PDC patient-derived colon adenocarcinoma cell line growth inhibition [CLK]
Settings: for viability, T/C: stronger effect = lower value
How it was run: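 Multi-cell-type spheroids combined patient-derived tumor cells with HUVEC endothelial cells and human mesenchymal stem cells. Paired agents were dosed in half-log steps down from about clinical Cmax, or from 10 microM where Cmax was unknown.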

[1] = curve of first compound, second compound 0.0316 µM
[2] = curve of first compound, second compound 0.1 µM
[3] = curve of first compound, second compound 0.316 µM
[4] = curve of first compound, second compound 1 µM
[5] = curve of first compound, second compound 3.16 µM
[6] = curve of first compound, second compound 10 µM
[7] = second compound 0.0316 µM, first compound 0.0316 µM
[8] = second compound 0.0316 µM, first compound 0.1 µM
[9] = second compound 0.0316 µM, first compound 0.316 µM
[10] = second compound 0.0316 µM, first compound 1 µM
[11] = second compound 0.0316 µM, first compound 3.16 µM
[12] = second compound 0.0316 µM, first compound 10 µM
[13] = second compound 0.1 µM, first compound 0.0316 µM
[14] = second compound 0.1 µM, first compound 0.1 µM
[15] = second compound 0.1 µM, first compound 0.316 µM
[16] = second compound 0.1 µM, first compound 1 µM
[17] = second compound 0.1 µM, first compound 3.16 µM
[18] = second compound 0.1 µM, first compound 10 µM
[19] = second compound 0.316 µM, first compound 0.0316 µM
[20] = second compound 0.316 µM, first compound 0.1 µM
[21] = second compound 0.316 µM, first compound 0.316 µM
[22] = second compound 0.316 µM, first compound 1 µM
[23] = second compound 0.316 µM, first compound 3.16 µM
[24] = second compound 0.316 µM, first compound 10 µM
[25] = second compound 1 µM, first compound 0.0316 µM
[26] = second compound 1 µM, first compound 0.1 µM
[27] = second compound 1 µM, first compound 0.316 µM
[28] = second compound 1 µM, first compound 1 µM
[29] = second compound 1 µM, first compound 3.16 µM
[30] = second compound 1 µM, first compound 10 µM
[31] = second compound 3.16 µM, first compound 0.0316 µM
[32] = second compound 3.16 µM, first compound 0.1 µM
[33] = second compound 3.16 µM, first compound 0.316 µM
[34] = second compound 3.16 µM, first compound 1 µM
[35] = second compound 3.16 µM, first compound 3.16 µM
[36] = second compound 3.16 µM, first compound 10 µM
[37] = second compound 10 µM, first compound 0.0316 µM
[38] = second compound 10 µM, first compound 0.1 µM
[39] = second compound 10 µM, first compound 0.316 µM
[40] = second compound 10 µM, first compound 1 µM
[41] = second compound 10 µM, first compound 3.16 µM
[42] = second compound 10 µM, first compound 10 µM
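Also: compound exposure lasted seven days before readout.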
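For viability, T/C in this document: 100% = DMSO vehicle control wells.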

## Nc1ccccc1NC(=O)c1ccc(CNC(=O)OCc2cccnc2)cc1 + CN1CCN(c2cc(C(=O)Nc3cc4cc(-c5cnn(C)c5)ccc4cn3)ccn2)CC1
[1]
  IC50: 3730 nM
[2]
  IC50: 1550 nM
[3]
  IC50: < 31.6 nM
[4]
  IC50: < 31.6 nM
[5]
  IC50: < 31.6 nM
[6]
  IC50: < 31.6 nM
[7]
  viability, T/C: 110%
[8]
  viability, T/C: 90.6%
[9]
  viability, T/C: 92.7%
[10]
  viability, T/C: 101%
[11]
  viability, T/C: 57%
[12]
  viability, T/C: 7.85%
[13]
  viability, T/C: 84.4%
[14]
  viability, T/C: 78%
[15]
  viability, T/C: 77.3%
[16]
  viability, T/C: 65.3%
[17]
  viability, T/C: 25.8%
[18]
  viability, T/C: 2.96%
[19]
  viability, T/C: 22.3%
[20]
  viability, T/C: 19.1%
[21]
  viability, T/C: 15.2%
[22]
  viability, T/C: 15.9%
[23]
  viability, T/C: 2.42%
[24]
  viability, T/C: 1.03%
[25]
  viability, T/C: 1.13%
[26]
  viability, T/C: 1.4%
[27]
  viability, T/C: 0.97%
[28]
  viability, T/C: 1.21%
[29]
  viability, T/C: 1.83%
[30]
  viability, T/C: 0.7%
[31]
  viability, T/C: 1.82%
[32]
  viability, T/C: 1.26%
[33]
  viability, T/C: 0.87%
[34]
  viability, T/C: 2.2%
[35]
  viability, T/C: 1.61%
[36]
  viability, T/C: 0.94%
[37]
  viability, T/C: 1.7%
[38]
  viability, T/C: 0.57%
[39]
  viability, T/C: 0.67%
[40]
  viability, T/C: 2.12%
[41]
  viability, T/C: 2.19%
[42]
  viability, T/C: 0.39%

## COc1cccc2c1C(=O)c1c(O)c3c(c(O)c1C2=O)CC(O)(C(=O)CO)CC3OC1CC(N)C(O)C(C)O1 (stereo not given) + CNC(=O)c1ccc(Nc2nc(OC3CCCC3)c3c(-c4ccc5nc(C)oc5c4)c[nH]c3n2)c(OC)c1
[1]
  IC50: 161 nM
[2]
  IC50: 138 nM
[3]
  IC50: 66 nM
[4]
  IC50: < 31.6 nM
[5]
  IC50: < 31.6 nM
[6]
  IC50: < 31.6 nM
[7]
  viability, T/C: 112%
[8]
  viability, T/C: 73.5%
[9]
  viability, T/C: 17.3%
[10]
  viability, T/C: 0.3%
[11]
  viability, T/C: 3.88%
[12]
  viability, T/C: 1.97%
[13]
  viability, T/C: 72.2%
[14]
  viability, T/C: 64.4%
[15]
  viability, T/C: 13%
[16]
  viability, T/C: 0.2%
[17]
  viability, T/C: 1.92%
[18]
  viability, T/C: 4.82%
[19]
  viability, T/C: 52.4%
[20]
  viability, T/C: 48.7%
[21]
  viability, T/C: 10.6%
[22]
  viability, T/C: 1.25%
[23]
  viability, T/C: 2.88%
[24]
  viability, T/C: 1.07%
[25]
  viability, T/C: 40.7%
[26]
  viability, T/C: 27.5%
[27]
  viability, T/C: 3.75%
[28]
  viability, T/C: 2.42%
[29]
  viability, T/C: 6.62%
[30]
  viability, T/C: 3.37%
[31]
  viability, T/C: 34.2%
[32]
  viability, T/C: 19.9%
[33]
  viability, T/C: 3.14%
[34]
  viability, T/C: 2.25%
[35]
  viability, T/C: 1.39%
[36]
  viability, T/C: 1.97%
[37]
  viability, T/C: 34.8%
[38]
  viability, T/C: 16.9%
[39]
  viability, T/C: 4.4%
[40]
  viability, T/C: 2.28%
[41]
  viability, T/C: 3.08%
[42]
  viability, T/C: 3.22%

## CN1CCN(c2cc(C(=O)Nc3cc4cc(-c5cnn(C)c5)ccc4cn3)ccn2)CC1
Compound 0.316 µM
  viability, T/C: 23.7% [middle of 11 runs]
Compound 1 µM
  viability, T/C: 0.99% [middle of 10 runs]
Compound 3.16 µM
  viability, T/C: 1.22% [middle of 11 runs]
Compound 10 µM
  viability, T/C: 1.7% [middle of 11 runs]
Compound alone, run of 08/14/2023
  IC50: 192 nM [middle of 11 runs]

## CC(C)CC(NC(=O)C(Cc1ccccc1)NC(=O)c1cnccn1)B(O)O (stereo not given) + CN1CCN(c2cc(C(=O)Nc3cc4cc(-c5cnn(C)c5)ccc4cn3)ccn2)CC1
[1]
  IC50: 4.52 nM
[2]
  IC50: 2.27 nM
[3]
  IC50: < 0.949 nM
[4]
  IC50: < 0.949 nM
[5]
  IC50: < 0.949 nM
[6]
  IC50: < 0.949 nM
Second compound 0.0316 µM, first compound 0.000949 µM
  viability, T/C: 93%
Second compound 0.0316 µM, first compound 0.003 µM
  viability, T/C: 77.2%
Second compound 0.0316 µM, first compound 0.00949 µM
  viability, T/C: 0.25%
Second compound 0.0316 µM, first compound 0.03 µM
  viability, T/C: 0.9%
Second compound 0.0316 µM, first compound 0.0949 µM
  viability, T/C: 0.78%
Second compound 0.0316 µM, first compound 0.3 µM
  viability, T/C: 1.15%
Second compound 0.1 µM, first compound 0.000949 µM
  viability, T/C: 88.1%
Second compound 0.1 µM, first compound 0.003 µM
  viability, T/C: 37.7%
Second compound 0.1 µM, first compound 0.00949 µM
  viability, T/C: 1.84%
Second compound 0.1 µM, first compound 0.03 µM
  viability, T/C: 0.31%
Second compound 0.1 µM, first compound 0.0949 µM
  viability, T/C: 1.92%
Second compound 0.1 µM, first compound 0.3 µM
  viability, T/C: 0.17%
Second compound 0.316 µM, first compound 0.000949 µM
  viability, T/C: 26.1%
Second compound 0.316 µM, first compound 0.003 µM
  viability, T/C: 1.14%
Second compound 0.316 µM, first compound 0.00949 µM
  viability, T/C: 1.35%
Second compound 0.316 µM, first compound 0.03 µM
  viability, T/C: 1.4%
Second compound 0.316 µM, first compound 0.0949 µM
  viability, T/C: 1.62%
Second compound 0.316 µM, first compound 0.3 µM
  viability, T/C: 0.34%
Second compound 1 µM, first compound 0.000949 µM
  viability, T/C: 0.5%
Second compound 1 µM, first compound 0.003 µM
  viability, T/C: 0.4%
Second compound 1 µM, first compound 0.00949 µM
  viability, T/C: 1.57%
Second compound 1 µM, first compound 0.03 µM
  viability, T/C: 0.8%
Second compound 1 µM, first compound 0.0949 µM
  viability, T/C: 1.78%
Second compound 1 µM, first compound 0.3 µM
  viability, T/C: 0.17%
Second compound 3.16 µM, first compound 0.000949 µM
  viability, T/C: 2.83%
Second compound 3.16 µM, first compound 0.003 µM
  viability, T/C: 0.72%
Second compound 3.16 µM, first compound 0.00949 µM
  viability, T/C: 0.33%
Second compound 3.16 µM, first compound 0.03 µM
  viability, T/C: 1.62%
Second compound 3.16 µM, first compound 0.0949 µM
  viability, T/C: 1.24%
Second compound 3.16 µM, first compound 0.3 µM
  viability, T/C: 0.17%
Second compound 10 µM, first compound 0.000949 µM
  viability, T/C: 1.17%
Second compound 10 µM, first compound 0.003 µM
  viability, T/C: 0.46%
Second compound 10 µM, first compound 0.00949 µM
  viability, T/C: 0.27%
Second compound 10 µM, first compound 0.03 µM
  viability, T/C: 1.87%
Second compound 10 µM, first compound 0.0949 µM
  viability, T/C: 1.18%
Second compound 10 µM, first compound 0.3 µM
  viability, T/C: 0.16%

## COc1cccc2c1C(=O)c1c(O)c3c(c(O)c1C2=O)CC(O)(C(=O)CO)CC3OC1CC(N)C(O)C(C)O1 (stereo not given)
Compound 0.0316 µM
  viability, T/C: 127%
Compound 0.1 µM
  viability, T/C: 76.1%
Compound 0.316 µM
  viability, T/C: 20.6%
Compound 1 µM
  viability, T/C: 0.4%
Compound 3.16 µM
  viability, T/C: 1.81%
Compound 10 µM
  viability, T/C: 2.31%
Curve of compound
  IC50: 171 nM

## COC1C=CCC(C)C(C)S(=O)(=O)NC(=O)c2ccc3c(c2)N(CC2CCC21)CC1(CCCc2cc(Cl)ccc21)CO3 (stereo not given)
Compound 0.0316 µM
  viability, T/C: 83.5% and 117%
Compound 0.1 µM
  viability, T/C: 90% and 103%
Compound 0.316 µM
  viability, T/C: 88.2% and 101%
Compound 1 µM
  viability, T/C: 85.8% and 84.1%
Compound 3.16 µM
  viability, T/C: 82.9% and 69.2%
Compound 10 µM
  viability, T/C: 3.82% and 5.57%
Curve of compound
  IC50: 5110 nM and 4150 nM
